Laboratory results from patent US9783510B2, “Small molecule mediated transcriptional induction of E-cadherin” (Vanderbilt University, priority 2014, dated 2017).

system: E-cadherin expression in SW620 cells; test: E-cadherin expression, in-cell Western (ICW), SW620 cells; assay type: cell-based; settings: Homo sapiens, SW-620, 24 h, change in expression level of E-cadherin in response to 10 μM compound, 24 hours, SW620 cells
Procedure: SW620 and H520 cells (5×10^4/100 μL) were seeded in a 96-well plate prior to treatment. Cells were treated with 10 μM concentration of synthesized compound in quadruplicate for 24 hours in RPMI 1640 supplemented medium and 100 μg/mL penicillin-streptomycin. The cells were then fixed with 100% methanol for 20 minutes at 4° C. The wells were then washed 2 times with PBS, permeabilized in 2% bovine serum albumin (BSA) and 0.2% TritonX-100 in PBS for 30 minutes at room temperature with gentle agitation, and blocked in LI-COR blocking buffer for 30 minutes at room temperature with gentle agitation. The cells were then incubated with the following primary antibodies: anti-E-Cadherin (1:500) and anti-α-Tubulin (1:1000) diluted in blocking buffer (1:1 dilution in PBS) for 2 hours at room temperature with gentle agitation. The cells were washed 4 times in PBS-T for 5 minutes each, and then incubated with the following secondary antibodies conjugated to a fluorescent entity: IRDye 800-conjugated goat anti-rabbit IgG (1:1000) and IRDye-700-conjugated goat anti-mouse IgG (1:2000) in blocking buffer (1:1 dilution in PBS) with gentle agitation for 1 h at room temperature. The cells were washed 4 times in PBS-T for 5 minutes each followed by a single wash with PBS. All liquid was removed from the wells and the plates were visualized and analyzed on the Odyssey IR imaging system (LI-COR Biosciences).
The assay was further optimized in the following manner. The cells were washed 2 times with PBS, fixed in 100% methanol at room temperature for 15 minutes, and again washed 2 times with PBS. The cells were then incubated with the following primary antibodies: anti-E-Cadherin (1:200) and anti-α-Tubulin (1:2000) diluted in ice cold 2% bovine serum albumin (BSA) and 0.2% TritonX-100 in PBS for 1 hour at room temperature with gentle agitation. The cells were washed 2 times in PBS and then incubated with the following secondary antibodies conjugated to a fluorescent entity: Licor 800-conjugated goat anti-rabbit IgG (1:2000) and IRDye-700-conjugated goat anti-mouse IgG (1:2000) in ice cold 2% BSA and 0.2% TritonX-100 in PBS with gentle agitation for 45 minutes at room temperature. The wells were washed 2 times in PBS, dried, and analyzed as previously mentioned.
N-Acetamidoalkyl-5-arylisoxazole-3-carboxamide analogs were synthesized as described above. Changes in expression level of E-cadherin in response to 10 μM compound in SW620 cells was determined in a cell-based functional assay as described above, and the data are shown in Table III. The compound number corresponds to the compound numbers used in Table II.
EC50 of inducement of E-cadherin expression in SW620 cells was determined in a cell-based functional assay as described above, and the data are shown in Table V. The compound number corresponds to the compound numbers used in Table IV.

Structure (SMILES)	fold induction at 10 µM
Cc1ccc(C(=O)NCCCNC(=O)c2cc(-c3cccs3)on2)o1 [Compound 77, N-(3-(5-methylfuran-2-carboxamido)propyl)-5-(thiophen-2-yl)isoxazole-3-carboxamide]	2.99
Cc1noc(C(=O)NCCCNC(=O)c2cc(-c3cccs3)on2)n1 [Compound 78, 3-methyl-N-(3-(5-(thiophen-2-yl)isoxazole-3-carboxamido)propyl)-1,2,4-oxadiazole-5-carboxamide]	1.97
Nc1ccc(C(=O)NCCCNC(=O)c2cc(-c3cccs3)on2)cn1 [Compound 79, N-(3-(6-aminonicotinamido)propyl)-5-(thiophen-2-yl)isoxazole-3-carboxamide]	3.58
Cc1nc(C(=O)NCCCNC(=O)c2cc(-c3cccs3)on2)no1 [Compound 80, 5-methyl-N-(3-(5-(thiophen-2-yl)isoxazole-3-carboxamido)propyl)-1,2,4-oxadiazole-3-carboxamide]	2.83
O=C(NCCCNC(=O)c1cccc(Cl)n1)c1cc(-c2cccs2)on1 [Compound 81, N-(3-(6-chloropicolinamido)propyl)-5-(thiophen-2-yl)isoxazole-3-carboxamide]	3.09
N#Cc1ccnc(C(=O)NCCCNC(=O)c2cc(-c3cccs3)on2)c1 [Compound 82, N-(3-(4-cyanopicolinamido)propyl)-5-(thiophen-2-yl)isoxazole-3-carboxamide]	2.8
O=C(NCCCNC(=O)c1cncc(Cl)n1)c1cc(-c2cccs2)on1 [Compound 83, N-(3-(6-chloropyrazine-2-carboxamido)propyl)-5-(thiophen-2-yl)isoxazole-3-carboxamide]	2.64
O=C(NCCCNC(=O)c1cc2ccccc2o1)c1cc(-c2cccs2)on1 [Compound 85, N-(3-(benzofuran-2-carboxamido)propyl)-5-(thiophen-2-yl)isoxazole-3-carboxamide]	3.26
O=C(NCCCNC(=O)c1ccc2ccccc2n1)c1cc(-c2ccccc2)on1 [Compound 86, 5-phenyl-N-(3-(quinoline-2-carboxamido)propyl)isoxazole-3-carboxamide]	3.48
O=C(NCCCNC(=O)c1cnc2ccccn12)c1cc(-c2ccccc2)on1 [Compound 87, N-(3-(imidazo[1,2-a]pyridine-3-carboxamido)propyl)-5-phenylisoxazole-3-carboxamide]	2.4
O=C(NCCCNC(=O)c1ccc(C(F)(F)F)o1)c1cc(-c2ccccc2)on1 [Compound 89, 5-phenyl-N-(3-(5-(trifluoromethyl)furan-2-carboxamido)propyl)isoxazole-3-carboxamide]	2.13
Cc1nc(C(=O)NCCCNC(=O)c2cc(-c3ccccc3)on2)no1 [Compound 91, 5-methyl-N-(3-(5-phenylisoxazole-3-carboxamido)propyl)-1,2,4-oxadiazole-3-carboxamide]	3.47
O=C(NCCCNC(=O)c1cccc(Cl)n1)c1cc(-c2ccccc2)on1 [Compound 92, N-(3-(6-chloropicolinamido)propyl)-5-phenylisoxazole-3-carboxamide]	3.13
N#Cc1ccnc(C(=O)NCCCNC(=O)c2cc(-c3ccccc3)on2)c1 [Compound 93, N-(3-(4-cyanopicolinamido)propyl)-5-phenylisoxazole-3-carboxamide]	2.88
O=C(NCCCNC(=O)c1cncc(Cl)n1)c1cc(-c2ccccc2)on1 [Compound 94, N-(3-(6-chloropyrazine-2-carboxamido)propyl)-5-phenylisoxazole-3-carboxamide]	3.69
O=C(Cc1c[nH]c2ccccc12)NCCCNC(=O)c1cc(-c2ccccc2)on1 [Compound 95, N-(3-(2-(1H-indol-3-yl)acetamido)propyl)-5-phenylisoxazole-3-carboxamide]	4.2

Structure (SMILES)	fold induction at 10 µM
O=C(NCCCNC(=O)c1cc2ccccc2o1)c1cc(-c2ccccc2)on1 [Compound 96, N-(3-(benzofuran-2-carboxamido)propyl)-5-phenylisoxazole-3-carboxamide]	2.58
Cc1cncc(C(=O)NCCCNC(=O)c2cc(-c3cccs3)on2)n1 [Compound 97, N-(3-(6-methylpyrazine-2-carboxamido)propyl)-5-(thiophen-2-yl)isoxazole-3-carboxamide]	3.82
CC(C)(C)c1ccc(C(=O)NCCCNC(=O)c2cc(-c3cccs3)on2)o1 [Compound 98, N-(3-(5-(tert-butyl)furan-2-carboxamido)propyl)-5-(thiophen-2-yl)isoxazole-3-carboxamide]	3.65
O=C(NCCCNC(=O)c1ccc(Cl)o1)c1cc(-c2cccs2)on1 [Compound 99, N-(3-(5-chlorofuran-2-carboxamido)propyl)-5-(thiophen-2-yl)isoxazole-3-carboxamide]	3.66
O=C(NCCCNC(=O)c1occc1-c1ccccc1)c1cc(-c2cccs2)on1 [Compound 100, N-(3-(3-phenylfuran-2-carboxamido)propyl)-5-(thiophen-2-yl)isoxazole-3-carboxamide]	2.37
CCc1ccc(C(=O)NCCCNC(=O)c2cc(-c3cccs3)on2)o1 [Compound 101, N-(3-(5-ethylfuran-2-carboxamido)propyl)-5-(thiophen-2-yl)isoxazole-3-carboxamide]	4.24
O=C(NCCCNC(=O)c1ccno1)c1cc(-c2cccs2)on1 [Compound 102, N-(3-(isoxazole-5-carboxamido)propyl)-5-(thiophen-2-yl)isoxazole-3-carboxamide]	2.87
Cn1cnc(C(=O)NCCCNC(=O)c2cc(-c3cccs3)on2)c1 [Compound 103, N-(3-(1-methyl-1H-imidazole-4-carboxamido)propyl)-5-(thiophen-2-yl)isoxazole-3-carboxamide]	3.02
O=C(NCCCNC(=O)c1cnn[nH]1)c1cc(-c2cccs2)on1 [Compound 104, N-(3-(1H-1,2,3-triazole-5-carboxamido)propyl)-5-(thiophen-2-yl)isoxazole-3-carboxamide]	3.13
O=C(NCCCNC(=O)c1cc(-c2cccs2)on1)c1cc(-c2ccccc2)ccn1 [Compound 106, N-(3-(4-phenylpicolinamido)propyl)-5-(thiophen-2-yl)isoxazole-3-carboxamide]	3.69
O=C(NCCCNC(=O)c1cccc(C(F)(F)F)n1)c1cc(-c2cccs2)on1 [Compound 107, 5-(thiophen-2-yl)-N-(3-(6-(trifluoromethyl)picolinamido)propyl)isoxazole-3-carboxamide]	4.15
O=C(NCCCNC(=O)c1nc2ncccn2n1)c1cc(-c2cccs2)on1 [Compound 108, N-(3-([1,2,4]triazolo[1,5-a]pyrimidine-2-carboxamido)propyl)-5-(thiophen-2-yl)isoxazole-3-carboxamide]	2.45
Cc1cc(C)c(C(=O)NCCCNC(=O)c2cc(-c3cccs3)on2)o1 [Compound 110, N-(3-(3,5-dimethylfuran-2-carboxamido)propyl)-5-(thiophen-2-yl)isoxazole-3-carboxamide]	3.74
Cc1cncc(C(=O)NCCCNC(=O)c2cc(-c3ccccc3)on2)n1 [Compound 111, N-(3-(6-methylpyrazine-2-carboxamido)propyl)-5-phenylisoxazole-3-carboxamide]	4.13
CC(C)(C)c1ccc(C(=O)NCCCNC(=O)c2cc(-c3ccccc3)on2)o1 [Compound 112, N-(3-(5-(tert-butyl)furan-2-carboxamido)propyl)-5-phenylisoxazole-3-carboxamide]	3.86
O=C(NCCCNC(=O)c1occc1-c1ccccc1)c1cc(-c2ccccc2)on1 [Compound 114, 5-phenyl-N-(3-(3-phenylfuran-2-carboxamido)propyl)isoxazole-3-carboxamide]	4.7

same assay, conditions: Homo sapiens, SW-620; inducement of E-cadherin expression in SW620 cells

Structure (SMILES)	EC50
O=C(Cc1c[nH]c2ccccc12)NCCCNC(=O)c1cc(-c2ccccc2)on1 [Compound 95, N-(3-(2-(1H-indol-3-yl)acetamido)propyl)-5-phenylisoxazole-3-carboxamide]	2.57 µM
CCc1ccc(C(=O)NCCCNC(=O)c2cc(-c3cccs3)on2)o1 [Compound 101, N-(3-(5-ethylfuran-2-carboxamido)propyl)-5-(thiophen-2-yl)isoxazole-3-carboxamide]	4.12 µM
O=C(NCCCNC(=O)c1cccc(C(F)(F)F)n1)c1cc(-c2cccs2)on1 [Compound 107, 5-(thiophen-2-yl)-N-(3-(6-(trifluoromethyl)picolinamido)propyl)isoxazole-3-carboxamide]	6.95 µM
Cc1cncc(C(=O)NCCCNC(=O)c2cc(-c3ccccc3)on2)n1 [Compound 111, N-(3-(6-methylpyrazine-2-carboxamido)propyl)-5-phenylisoxazole-3-carboxamide]	7.2 µM
O=C(NCCCNC(=O)c1occc1-c1ccccc1)c1cc(-c2ccccc2)on1 [Compound 114, 5-phenyl-N-(3-(3-phenylfuran-2-carboxamido)propyl)isoxazole-3-carboxamide]	6.35 µM

same assay, conditions: change in expression level of E-cadherin in response to 10 μM compound, 24 hours, SW620 cells

Structure (SMILES)	fold change SW620 ICW
Nc1ccc(C(=O)NCCCNC(=O)c2cc(-c3ccccc3)on2)cn1 [Compound 90, N-(3-(6-aminonicotinamido)propyl)-5-phenylisoxazole-3-carboxamide]	2.50 fold
